Test results taken from ChEMBL document CHEMBL1201862, “PubChem BioAssay data set” (2004).
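Test compounds were applied to cells in 96-well plates for 48 hours at 5 doses. At the GI50, growth is halved.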 Calls of active or inactive are those of the source. Rule as the data show it: active = GI50 up to about 1.1 µM and inactive = higher.

Experiments:
Test in all cases: NCI tumour cell line growth inhibition, 48 h
CCRF-CEM = tested on: CCRF-CEM
COLO 205 = tested on: COLO 205
DU-145 = tested on: DU-145
HCT-116 = tested on: HCT-116
HOP-92 = tested on: HOP-92
K562 = tested on: K562
KM12 = tested on: KM12
MCF7 = tested on: MCF7
NCI-H226 = tested on: NCI-H226
NCI/ADR-RES = tested on: NCI/ADR-RES
OVCAR-3 = tested on: OVCAR-3
OVCAR-4 = tested on: OVCAR-4
OVCAR-5 = tested on: OVCAR-5
RPMI-8226 = tested on: RPMI-8226
SK-MEL-2 = tested on: SK-MEL-2
SN12C = tested on: SN12C
SR = tested on: SR
SW-620 = tested on: SW-620
UACC-257 = tested on: UACC-257
SF-539 = tested on: SF-539

Measured: GI50

O=CC(O)C(O)C1OC(=O)c2cc(O)c(O)c(O)c2C2=C(O)C(O)=C3OC(=O)c4c(c(O)c(O)c5c4C3C2C(=O)O5)-c2c(cc(O)c(O)c2O)C(=O)OCC1O (centres undefined)
inactive: CCRF-CEM 20.4 µM | COLO 205 23.2 µM | DU-145 17.9 µM | HCT-116 15.4 µM | HOP-92 18 µM | K562 20.7 µM | KM12 10.4 µM | MCF7 17.2 µM | NCI-H226 21.4 µM | NCI/ADR-RES 88.5 µM | OVCAR-3 18.2 µM | OVCAR-4 16.7 µM | OVCAR-5 24 µM | RPMI-8226 24.5 µM | SK-MEL-2 33 µM | SN12C 15.2 µM | SR 24.1 µM | SW-620 16.9 µM | UACC-257 49.5 µM

Cc1ccc(-c2cc(-c3ccco3)c(C#N)c(=S)[nH]2)cc1
inactive: CCRF-CEM 38.3 µM | COLO 205 97.3 µM | DU-145 93.5 µM | HCT-116 50.5 µM | HOP-92 99.5 µM | K562 41 µM | KM12 63.2 µM | MCF7 16.2 µM | NCI-H226 31.5 µM | NCI/ADR-RES > 100 µM | OVCAR-3 61.7 µM | OVCAR-4 75.5 µM | OVCAR-5 > 100 µM | RPMI-8226 35.5 µM | SN12C 87.9 µM | SR 42.5 µM | SW-620 53.3 µM

Cc1ccc(S(=O)(=O)N2CCC[C@@H]2C(=O)O[C@@H]2CCC3CC=CC32)cc1 (some centres undefined)
inactive: CCRF-CEM 24.8 µM | COLO 205 16.6 µM | DU-145 45.6 µM | HCT-116 30.4 µM | HOP-92 15.3 µM | K562 14 µM | KM12 28.3 µM | MCF7 33.9 µM | NCI-H226 19.9 µM | NCI/ADR-RES 19.3 µM | OVCAR-3 12.1 µM | OVCAR-4 47 µM | OVCAR-5 45.8 µM | RPMI-8226 18.7 µM | SF-539 44.5 µM | SN12C 28.1 µM | SR 11.6 µM | SW-620 40.3 µM | UACC-257 22.2 µM

CCCCCC(=O)CCCCCCCC(O)CC(=O)OCC (centres undefined)
inactive: CCRF-CEM > 100 µM | DU-145 > 100 µM | HCT-116 > 100 µM | HOP-92 49.1 µM | K562 > 100 µM | KM12 > 100 µM | MCF7 > 100 µM | NCI-H226 > 100 µM | NCI/ADR-RES > 100 µM | OVCAR-3 > 100 µM | OVCAR-5 > 100 µM | RPMI-8226 > 100 µM | SF-539 > 100 µM | SN12C > 100 µM | SR > 100 µM | SW-620 > 100 µM | UACC-257 > 100 µM

CC(C)/C=N\N1C(N)=C(C#N)C(C#N)(C#N)C1C(C)C (centres undefined)
inactive: CCRF-CEM 36.2 µM | COLO 205 48.1 µM | DU-145 40 µM | HCT-116 47.9 µM | K562 42.1 µM | KM12 44.6 µM | MCF7 55.5 µM | NCI-H226 55.6 µM | NCI/ADR-RES 31.3 µM | OVCAR-3 48.2 µM | OVCAR-4 52.1 µM | OVCAR-5 50.2 µM | RPMI-8226 37.8 µM | SF-539 22.7 µM | SK-MEL-2 67.3 µM | SN12C 69.8 µM | SR 29.3 µM | SW-620 34.6 µM | UACC-257 47.5 µM

CC[C@]1(Cc2ccc(OC)c(OC)c2)C=[N+]([O-])O[C@H](OC2CCCCC2c2ccccc2)[C@@H]1OC(C)=O (some centres undefined)
inactive: CCRF-CEM 23.2 µM | COLO 205 19.9 µM | DU-145 49 µM | HCT-116 34.1 µM | HOP-92 57.7 µM | K562 30.8 µM | KM12 39.6 µM | MCF7 28.8 µM | NCI-H226 32.5 µM | NCI/ADR-RES 41.8 µM | OVCAR-3 33.4 µM | OVCAR-4 33 µM | OVCAR-5 > 100 µM | RPMI-8226 21.1 µM | SK-MEL-2 46.1 µM | SN12C 36.6 µM | SR 22.8 µM | SW-620 40.2 µM | UACC-257 67.3 µM

Cc1cc2[nH]c(=NS(=O)(=O)c3cc(C)c(Cl)cc3S)[nH]c2cc1C
inactive: CCRF-CEM 21.4 µM | COLO 205 > 100 µM | DU-145 > 100 µM | HCT-116 51.4 µM | HOP-92 > 100 µM | K562 59.7 µM | KM12 46.2 µM | MCF7 60.8 µM | NCI/ADR-RES 91.4 µM | OVCAR-3 > 100 µM | OVCAR-4 > 100 µM | OVCAR-5 > 100 µM | RPMI-8226 45.9 µM | SF-539 68.9 µM | SK-MEL-2 > 100 µM | SN12C > 100 µM | SR 19.4 µM | SW-620 43.4 µM | UACC-257 > 100 µM
